Drawing on the OPERA property sets (Mansouri et al. 2018), this text covers logP for 46 compounds.

For `CC(C)(C)N(NC(=O)c1ccccc1)C(=O)c1ccccc1`, the logP – broadly, a log measure of how a compound divides between an organic and an aqueous phase – turned out to be 2.45.

The compound `CC(C)(C)N(NC(=O)c1ccccc1)C(=O)c1cc(Cl)ccc1Cl` returned a logP of 3.36.

Regarding `CC(C)(C)N(NC(=O)c1ccccc1)C(=O)c1ccc(C#N)cc1`, the logP stood at 2.5.

Compound `CC(C)(C)N(NC(=O)c1ccccc1)C(=O)c1c(F)c(F)c(F)c(F)c1F` registered a logP of 3.25.

`CC(C)(C)N(NC(=O)c1ccccc1)C(=O)c1ccc(Br)cc1` displayed a logP of 3.66.

`CC(C)(C)N(NC(=O)c1ccccc1)C(=O)c1ccc(Cl)cc1` came in with a logP of 3.42.

The compound `COc1ccc(C(=O)N(NC(=O)c2ccccc2)C(C)(C)C)cc1` yielded a logP of 2.56.

As to `CC(C)(C)N(NC(=O)c1ccccc1)C(=O)c1ccccc1F`, the lipophilicity (logP) amounted to 2.38.

With `Cc1cc(C)cc(C(=O)N(NC(=O)c2ccccc2)C(C)(C)C)c1`, the logP was 3.39.

Regarding `CC(C)(C)N(NC(=O)c1ccccc1)C(=O)c1ccc(Cl)c(Cl)c1`, the logP turned out to be 4.25.

`Cc1cccc(C(=O)N(NC(=O)c2ccccc2)C(C)(C)C)c1` yielded a logP of 2.79.

Compound `CSc1ccccc1C(=O)N(NC(=O)c1ccccc1)C(C)(C)C` had a lipophilicity (logP) of 2.6.

`Cc1c(Cl)cccc1C(=O)N(NC(=O)c1ccccc1)C(C)(C)C` returned a logP of 3.57.

Compound `Cc1ccc(C(=O)N(NC(=O)c2ccccc2)C(C)(C)C)cc1` gave a logP of 2.99.

Regarding `COc1cccc(C(=O)N(NC(=O)c2ccccc2)C(C)(C)C)c1`, the logP was 2.56.

With `CC(C)(C)N(NC(=O)c1ccccc1)C(=O)c1cc(F)c(F)c(F)c1F`, the logP is 3.44.

In turn, `Cc1ccc(C(=O)N(NC(=O)c2ccccc2)C(C)(C)C)c(C)c1` yielded a logP of 3.18.

The compound `CC(C)(C)N(NC(=O)c1ccccc1)C(=O)c1ccc(C(F)(F)F)cc1` had a logP of 3.77.

Take `COc1ccccc1C(=O)N(NC(=O)c1ccccc1)C(C)(C)C`: the lipophilicity (logP) amounted to 2.04.

`CC(C)(C)N(NC(=O)c1ccccc1)C(=O)c1ccccc1I`: the logP is 2.83.

Regarding `CC(C)(C)N(NC(=O)c1ccccc1)C(=O)c1cccc(I)c1`, the logP was determined as 3.72.

`CC(C)(C)N(NC(=O)c1ccccc1)C(=O)c1ccc(I)cc1` registered a lipophilicity (logP) of 3.78.

Compound `Cc1ccc(C(=O)N(NC(=O)c2ccccc2)C(C)(C)C)cc1C` gave a logP of 3.34.

Compound `CC(C)(C)N(NC(=O)c1cccc(Cl)c1)C(=O)c1ccccc1Cl` returned a lipophilicity (logP) of 3.49.

As to `CC(C)(C)N(NC(=O)c1ccccc1)C(=O)c1ccccc1Br`, the log partition coefficient (logP) amounted to 2.69.

In turn, `CC(C)(C)N(NC(=O)c1ccccc1)C(=O)c1cccc(Cl)c1Cl` returned a logP of 3.41.

Consider `CC(C)(C)N(NC(=O)c1ccccc1)C(=O)c1c(F)cccc1F`, for which the logP turned out to be 2.16.

As to `COc1ccc(C(=O)N(NC(=O)c2ccccc2)C(C)(C)C)cc1OC`, the logP came out at 2.09.

For the compound `CC(C)(C)N(NC(=O)c1ccccc1)C(=O)c1ccc(F)cc1`, the logP came out at 2.85.

Compound `CC(C)(C)N(NC(=O)c1ccccc1)C(=O)c1cccc(C(F)(F)F)c1` yielded a logP of 3.61.

`CC(C)(C)N(NC(=O)c1ccccc1)C(=O)c1c(Cl)cccc1Cl` registered a logP of 2.56.

Regarding `CC(C)(C)N(NC(=O)c1ccccc1)C(=O)c1cccc([N+](=O)[O-])c1`, the lipophilicity (logP) is 2.73.

Compound `CC(C)(C)N(NC(=O)c1ccccc1)C(=O)c1ccc([N+](=O)[O-])cc1` came in with a lipophilicity (logP) of 2.63.

The compound `CC(C)(C)N(NC(=O)c1ccccc1)C(=O)c1cccc(C#N)c1` came in with a logP of 2.34.

`CC(C)(C)N(NC(=O)c1ccccc1)C(=O)c1ccc(Cl)cc1Cl` gave a logP of 3.55.

Turning to `Cc1ccc(C)c(C(=O)N(NC(=O)c2ccccc2)C(C)(C)C)c1`, the lipophilicity (logP) is 3.25.

`Cc1ccccc1C(=O)N(NC(=O)c1ccccc1)C(C)(C)C` registered a logP of 2.75.

Consider `CC(C)(C)N(NC(=O)c1ccccc1)C(=O)c1cccc(Cl)c1`, for which the logP was 3.28.

For `CC(C)(C)N(NC(=O)c1ccccc1)C(=O)c1ccccc1C(F)(F)F`, the logP amounted to 2.85.

For `CC(C)(C)N(NC(=O)c1ccccc1)C(=O)c1cccc(Br)c1`, the logP is 3.49.

Compound `Cc1cccc(C(=O)N(NC(=O)c2ccccc2)C(C)(C)C)c1C` had a logP of 3.1.

Regarding `CC(C)(C)N(NC(=O)c1ccccc1Cl)C(=O)c1ccccc1Cl`, the logP is 2.75.

For `CC(C)(C)N(NC(=O)c1ccccc1)C(=O)c1ccccc1[N+](=O)[O-]`, the log partition coefficient (logP) was 2.27.

Consider `CC(C)(C)N(NC(=O)c1ccccc1)C(=O)c1cccc(F)c1`, for which the logP turned out to be 2.78.

Regarding `CCc1ccccc1C(=O)N(NC(=O)c1ccccc1)C(C)(C)C`, the logP turned out to be 2.96.

The compound `CC(C)(C)N(NC(=O)c1ccccc1)C(=O)c1c(F)cccc1Cl` displayed a logP of 2.34.
